The target of the assay is T1, Cholesteryl ester transfer protein (Homo sapiens) (UniProt P11597).
T1 sequence (whole entry): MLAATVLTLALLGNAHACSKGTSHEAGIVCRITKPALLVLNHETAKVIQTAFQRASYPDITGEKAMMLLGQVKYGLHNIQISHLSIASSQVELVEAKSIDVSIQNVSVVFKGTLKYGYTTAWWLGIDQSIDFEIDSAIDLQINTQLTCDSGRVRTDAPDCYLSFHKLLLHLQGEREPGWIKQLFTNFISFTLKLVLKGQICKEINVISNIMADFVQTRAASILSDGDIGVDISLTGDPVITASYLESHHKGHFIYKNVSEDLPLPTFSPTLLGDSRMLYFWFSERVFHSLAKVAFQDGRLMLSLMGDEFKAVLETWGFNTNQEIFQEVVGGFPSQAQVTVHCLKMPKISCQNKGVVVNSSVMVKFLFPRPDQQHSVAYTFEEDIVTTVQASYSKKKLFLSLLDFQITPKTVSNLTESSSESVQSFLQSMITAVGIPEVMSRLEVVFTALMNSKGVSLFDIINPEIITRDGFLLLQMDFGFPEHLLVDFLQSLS
As to the kind of experiment: Inhibition of human plasma derived CETP relative to control. Also noted: concentration or dose not given beside the values. The following applies: concentration not given here.
The inhibition is how much of the control response was suppressed. `O[C@@H](CN1c2cccc(-c3cccc(OC(F)(F)F)c3)c2CC[C@H]1c1cccc(OC(F)(F)F)c1)C(F)(F)F` registered an inhibition of 20%.
For the molecule `O[C@H](CN1c2cccc(-c3cccc(OC(F)(F)F)c3)c2CC[C@H]1c1cccc(OC(F)(F)F)c1)C(F)(F)F`, the inhibition amounted to 46%.
Molecule `OC(CN1c2cccc(-c3cccc(OC(F)(F)F)c3)c2CCC1c1cccc(OC(F)(F)C(F)F)c1)C(F)(F)F` (single isomer, unassigned; 19) gave an inhibition of 100%.
In turn, `OC(CN1c2cccc(-c3cccc(OC(F)(F)F)c3)c2CCC1c1cccc(OC(F)(F)C(F)F)c1)C(F)(F)F` (single isomer, unassigned; 20) displayed an inhibition of 86%.
The molecule `OC(CN1c2cccc(-c3cccc(OC(F)(F)F)c3)c2CCC1c1cccc(OC(F)(F)C(F)F)c1)C(F)(F)F` (single isomer, unassigned; 38) showed an inhibition of 9%.
The molecule `OC(CN1c2cccc(-c3cccc(OC(F)(F)F)c3)c2CCC1c1cccc(OC(F)(F)C(F)F)c1)C(F)(F)F` (single isomer, unassigned; 39) had an inhibition of 0%.
The same measure for `CCC1CCc2c(-c3cccc(OC(F)(F)F)c3)cccc2N1CC(O)C(F)(F)F` (single isomer, unassigned; diastereomer 1): 44%; for `CCc1cc(Oc2cccc3c2CCC(c2cccc(OC(F)(F)C(F)F)c2)N3CC(O)C(F)(F)F)ccc1Cl` (single isomer, unassigned; diastereomer 1): 62%; for `COCC(O)CN1c2cccc(-c3cccc(OC(F)(F)F)c3)c2CCC1c1cccc(OC(F)(F)F)c1` (single isomer, unassigned; diastereomer 1): 13%.
The molecule `COc1cccc(-c2cccc3c2CCC(c2cccc(OC(F)(F)C(F)F)c2)N3CC(O)C(F)(F)F)c1` (single isomer, unassigned; diastereomer 1) gave an inhibition of 68%.
The same measure for `N#Cc1cccc(-c2cccc3c2CCC(c2cccc(OC(F)(F)C(F)F)c2)N3CC(O)C(F)(F)F)c1` (single isomer, unassigned; diastereomer 1): 85%.
The molecule `OC(CCl)CN1c2cccc(-c3cccc(OC(F)(F)F)c3)c2CCC1c1cccc(OC(F)(F)F)c1` (single isomer, unassigned; diastereomer 1) had an inhibition of 56%.
The molecule `OC(CF)CN1c2cccc(-c3cccc(OC(F)(F)F)c3)c2CCC1c1cccc(OC(F)(F)F)c1` (single isomer, unassigned; diastereomer 1) registered an inhibition of 70%.
For the molecule `OC(CN1c2cccc(-c3cccc(C(F)(F)F)c3)c2CCC1c1cccc(OC(F)(F)C(F)F)c1)C(F)(F)F` (single isomer, unassigned; diastereomer 1), the inhibition stood at 93%.
The same measure for `OC(CN1c2cccc(-c3cccc(Cl)c3)c2CCC1c1cccc(OC(F)(F)C(F)F)c1)C(F)(F)F` (single isomer, unassigned; diastereomer 1): 67%.
The same measure for `OC(CN1c2cccc(-c3cccc(F)c3)c2CCC1c1cccc(OC(F)(F)C(F)F)c1)C(F)(F)F` (single isomer, unassigned; diastereomer 1): 93%; for `OC(CN1c2cccc(-c3cccc(OC(F)(F)F)c3)c2CCC1C1CCCCC1)C(F)(F)F` (single isomer, unassigned; diastereomer 1): 11%; for `OC(CN1c2cccc(-c3cccc(OC(F)(F)F)c3)c2CCC1c1ccc(OC(F)(F)C(F)F)cc1)C(F)(F)F` (single isomer, unassigned; diastereomer 1): 5%.
For the molecule `OC(CN1c2cccc(-c3cccc(OC(F)(F)F)c3)c2CCC1c1ccccc1)C(F)(F)F` (single isomer, unassigned; diastereomer 1), the inhibition was 21%.
For `OC(CN1c2cccc(-c3cccc(OC(F)(F)F)c3)c2CCC1c1cccs1)C(F)(F)F` (single isomer, unassigned; diastereomer 1), the inhibition was 28%.
Take `CC(C)C(O)CN1c2cccc(-c3cccc(OC(F)(F)F)c3)c2CCC1c1cccc(OC(F)(F)F)c1` (single isomer, unassigned; diastereomer 2): the inhibition came out at 22%.
The same measure for `CCC1CCc2c(-c3cccc(OC(F)(F)F)c3)cccc2N1CC(O)C(F)(F)F` (single isomer, unassigned; diastereomer 2): 12%; for `CCc1cc(Oc2cccc3c2CCC(c2cccc(OC(F)(F)C(F)F)c2)N3CC(O)C(F)(F)F)ccc1Cl` (single isomer, unassigned; diastereomer 2): 86%; for `COc1cccc(-c2cccc3c2CCC(c2cccc(OC(F)(F)C(F)F)c2)N3CC(O)C(F)(F)F)c1` (single isomer, unassigned; diastereomer 2): 38%.
With `N#Cc1cccc(-c2cccc3c2CCC(c2cccc(OC(F)(F)C(F)F)c2)N3CC(O)C(F)(F)F)c1` (single isomer, unassigned; diastereomer 2) the figure was 21%; with `OC(CCl)CN1c2cccc(-c3cccc(OC(F)(F)F)c3)c2CCC1c1cccc(OC(F)(F)F)c1` (single isomer, unassigned; diastereomer 2), 0%.
Turning to `OC(CF)CN1c2cccc(-c3cccc(OC(F)(F)F)c3)c2CCC1c1cccc(OC(F)(F)F)c1` (single isomer, unassigned; diastereomer 2), the inhibition came out at 13%.
On to `OC(CN1c2cccc(-c3cccc(C(F)(F)F)c3)c2CCC1c1cccc(OC(F)(F)C(F)F)c1)C(F)(F)F` (single isomer, unassigned; diastereomer 2), for which the inhibition came out at 37%.
Molecule `OC(CN1c2cccc(-c3cccc(Cl)c3)c2CCC1c1cccc(OC(F)(F)C(F)F)c1)C(F)(F)F` (single isomer, unassigned; diastereomer 2) came in with an inhibition of 55%.
The same measure for `OC(CN1c2cccc(-c3cccc(Cl)c3Cl)c2CCC1c1cccc(OC(F)(F)C(F)F)c1)C(F)(F)F` (single isomer, unassigned; diastereomer 2): 86%; for `OC(CN1c2cccc(-c3cccc(F)c3)c2CCC1c1cccc(OC(F)(F)C(F)F)c1)C(F)(F)F` (single isomer, unassigned; diastereomer 2): 52%.
`OC(CN1c2cccc(-c3cccc(OC(F)(F)F)c3)c2CCC1c1cccc(C(F)(F)F)c1)C(F)(F)F` (single isomer, unassigned; diastereomer 2) returned an inhibition of 37%.
`OC(CN1c2cccc(-c3cccc(OC(F)(F)F)c3)c2CCC1c1ccccc1)C(F)(F)F` (single isomer, unassigned; diastereomer 2) came in with an inhibition of 6%.
As for `OC(CN1c2cccc(-c3cccc(OC(F)(F)F)c3)c2CCC1c1cccs1)C(F)(F)F` (single isomer, unassigned; diastereomer 2), the inhibition stood at 12%.
Molecule `CC(C)C(O)CN1c2cccc(-c3cccc(OC(F)(F)F)c3)c2CCC1c1cccc(OC(F)(F)F)c1` (single isomer, unassigned; form 1) yielded an inhibition of 79%.
The same measure for `OC(CN1c2cccc(-c3cccc(OC(F)(F)F)c3)c2CCC1C1CCCCC1)C(F)(F)F` (single isomer, unassigned; form 1): 2%; for `CC(C)C(O)CN1c2cccc(-c3cccc(OC(F)(F)F)c3)c2CCC1c1cccc(OC(F)(F)F)c1` (single isomer, unassigned; form 2): 0%.
